Data reported in patent US12479927B2, “Compounds comprising cleavable linker and uses thereof” (priority 2017, dated 2025).

target: Escherichia coli β-galactosidase (Escherichia coli, UniProt P00722); assay: in vitro; conditions: recombinant enzyme, pH 7.4
Protocol: Method 1. Escherichia coli β-galactosidase
MPS used as a standard material was dissolved in PBS buffer solution to make 500 uM solution. […] This was followed by the addition of enzyme solution (14 μL of 1 mg/mL). When comparing with human β-galactosidase, 21 μL of enzyme solution (1 mg/mL) was added to achieve the same molar concentration, and the compound of the present invention and MPS each having an amount of 140 μL and […] of the buffer solution (pH 7.4) were mixed. The resulting reaction mixture was incubated at 37° C. Escherichia coli β-galactosidase enzyme (Sigma G4155) was used in the reaction mixture. The enzyme reaction solution was aliquoted at 0 min before the reaction and at a predetermined time after the reaction, respectively, wherein each aliquot was 70 μL. Then, the remaining compound of the present invention or MPS, and a material liberated by the enzyme reaction were quantitatively analyzed by HPLC.

Sequence of Escherichia coli β-galactosidase (P00722 2-1024): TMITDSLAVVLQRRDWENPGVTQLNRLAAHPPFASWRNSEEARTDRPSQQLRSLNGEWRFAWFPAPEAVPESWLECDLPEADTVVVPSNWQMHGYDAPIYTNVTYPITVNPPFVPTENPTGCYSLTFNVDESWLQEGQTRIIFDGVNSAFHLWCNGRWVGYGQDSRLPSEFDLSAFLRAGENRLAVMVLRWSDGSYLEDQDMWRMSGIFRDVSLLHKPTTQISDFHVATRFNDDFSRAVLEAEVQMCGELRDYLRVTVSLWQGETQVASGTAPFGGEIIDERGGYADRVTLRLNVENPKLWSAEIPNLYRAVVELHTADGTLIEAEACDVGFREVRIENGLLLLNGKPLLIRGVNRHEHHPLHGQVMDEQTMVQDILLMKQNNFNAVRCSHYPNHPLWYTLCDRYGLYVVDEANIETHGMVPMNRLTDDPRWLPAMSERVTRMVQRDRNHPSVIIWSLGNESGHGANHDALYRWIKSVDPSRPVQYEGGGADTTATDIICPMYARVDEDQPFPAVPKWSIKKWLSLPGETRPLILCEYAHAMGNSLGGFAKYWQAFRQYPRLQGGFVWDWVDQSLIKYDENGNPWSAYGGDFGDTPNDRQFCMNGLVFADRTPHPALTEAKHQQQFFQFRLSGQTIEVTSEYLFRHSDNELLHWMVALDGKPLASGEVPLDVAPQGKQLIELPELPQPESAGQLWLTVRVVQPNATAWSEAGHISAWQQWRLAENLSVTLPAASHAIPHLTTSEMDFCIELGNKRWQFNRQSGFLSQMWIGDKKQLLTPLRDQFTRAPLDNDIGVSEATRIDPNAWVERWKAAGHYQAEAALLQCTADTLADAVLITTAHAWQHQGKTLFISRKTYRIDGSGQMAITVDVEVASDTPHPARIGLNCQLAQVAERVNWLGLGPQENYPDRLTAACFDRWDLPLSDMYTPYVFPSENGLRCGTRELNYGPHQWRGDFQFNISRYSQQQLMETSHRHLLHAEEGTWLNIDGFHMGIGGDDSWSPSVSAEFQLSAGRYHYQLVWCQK

| SMILES | half-life at 100 μM [min] |
| --- | --- |
| CSCC[C@H](NC(=O)[C@H](Cc1ccccc1)NC(=O)CNC(=O)CNC(=O)[C@@H](N)Cc1ccc(OS(=O)(=O)Oc2ccccc2OC2O[C@H](CO)[C@H](O)[C@H](O)[C@H]2O)cc1)C(=O)O (some centres unmarked) [Compound B-9] | < 5 |
| CC(C)(C)OC(=O)NC(Cc1ccc(OS(=O)(=O)Oc2cc(CCC(=O)NCCOCCOCCOCCN=[N+]=[N-])ccc2OC2O[C@H](CO)[C@H](O)[C@H](O)[C@H]2O)cc1)C(=O)O (some centres unmarked) [Compound A-6] | 4.6 ± 1.72 |
| Cc1cn([C@H]2CC(O)[C@@H](CO)O2)c(=O)nc1OCc1ccc(OS(=O)(=O)Oc2ccccc2O[C@@H]2O[C@H](CO)[C@H](O)[C@H](O)[C@H]2O)cc1 (some centres unmarked) [Compound A-13] | < 5 |
| C[C@]12CC[C@@H]3c4ccc(OS(=O)(=O)Oc5cc(C(=O)NCCOCCOCCOCCN=[N+]=[N-])ccc5O[C@@H]5O[C@H](CO)[C@H](O)[C@H](O)[C@H]5O)cc4CC[C@H]3[C@@H]1CC[C@@H]2O [Compound B-6] | < 5 |
| Nc1nc(OCc2ccc(OS(=O)(=O)Oc3ccccc3OC3O[C@H](CO)[C@H](O)[C@H](O)[C@H]3O)cc2)c2ncn([C@@H]3O[C@H](CO)C(O)[C@@H]3O)c2n1 (some centres unmarked) [Compound A-4] | < 5 |
| CCC(C)[C@H]([C@H](CC(=O)N1CCC[C@@H]1[C@@H](OC)[C@H](C)C(=O)NC(Cc1ccccc1)C(=O)O)OC)N(C)C(=O)[C@H](NC(=O)[C@@H](C(C)C)N(C)C(=O)OCc1ccc(OS(=O)(=O)Oc2cc(C(=O)NCCOCCOCCOCCN=[N+]=[N-])ccc2O[C@H]2O[C@H](CO)[C@H](O)[C@H](O)[C@H]2O)cc1)C(C)C (some centres unmarked) [Compound B-3] | < 10 |
| CC/C(=C(\c1ccccc1)c1ccc(OCC[N+](C)(C)Cc2c(OC)cc(OS(=O)(=O)Oc3cc(C(=O)NCCOCCOCCOCCN=[N+]=[N-])ccc3OC3O[C@H](CO)[C@H](O)[C@H](O)[C@H]3O)cc2OC)cc1)c1ccccc1 (some centres unmarked) [Compound B-11] | < 5 |
| CC(C)(C)OC(=O)NC(Cc1ccc(OS(=O)(=O)Oc2cc3ccccc3cc2O[C@@H]2O[C@H](CO)[C@H](O)[C@H](O)[C@H]2O)cc1)C(=O)O (some centres unmarked) [Compound A-12] | < 5 |
| O=C(OCCc1cccnc1)OCc1ccc(OS(=O)(=O)Oc2ccccc2O[C@@H]2O[C@H](CO)[C@H](O)[C@H](O)[C@H]2O)cc1 [Compound A-9] | < 5 |
| COc1ccc(/C=C\c2cc(OC)c(OC)c(OC)c2)cc1OS(=O)(=O)Oc1cc(C(=O)NCCOCCOCCOCCN=[N+]=[N-])ccc1O[C@@H]1O[C@H](CO)[C@H](O)[C@H](O)[C@H]1O [Compound B-7] | < 5 |
| CC(OCN(CCN(C)C)C(=O)OCc1ccc(OS(=O)(=O)Oc2ccccc2OC2O[C@H](CO)[C@H](O)[C@H](O)[C@H]2O)cc1)c1ccccc1 (some centres unmarked) [Compound A-17] | < 1 |
| CC(C)(C)OC(=O)NCCN(CC(=O)O)C(=O)Cn1cnc2c(OCc3ccc(OS(=O)(=O)Oc4ccccc4OC4O[C@H](CO)[C@H](O)[C@H](O)[C@H]4O)cc3)nc(N)nc21 (some centres unmarked) [Compound A-18] | < 5 |
| O=C(Cc1cccnc1)OCc1ccc(OS(=O)(=O)Oc2ccccc2O[C@@H]2O[C@H](CO)[C@H](O)[C@H](O)[C@H]2O)cc1 [Compound A-10] | < 5 |
| CC(C)(C)OC(=O)NC(Cc1ccc(OS(=O)(=O)Oc2cc(C(=O)NCCOCCOCCOCCN=[N+]=[N-])ccc2O[C@@H]2O[C@H](CO)[C@H](O)[C@H](O)[C@H]2O)cc1)C(=O)O (some centres unmarked) [Compound A-2] | 3.71 ± 0.22 |
